Measured values published in patent US20160045487A1, “COMPOSITIONS AND METHODS FOR TREATING NEUROPATHY” (CHILDEREN'S MEDICAL CENTER CORPORATION, priority 2013, published 2016).

What was measured:
[1] = test system: GFAP-DN-erbB4 mice; assay: Hot plate (54° C.) thermal nociception test, GFAP-DN-erbB4 small fiber neuropathy model; format: in vivo, mouse
Protocol: As a first test, a cream containing XIB4035 (1.5 mM) was applied directly to the hind paws of GFAP-DN-erbB4 and wild type mice twice daily for a period of 4 weeks starting prior to symptom onset (P21). Mice of both genotypes were also treated with the base cream containing no drug for control. Mice were tested for responses to a noxious thermal stimulus prior to the initiation of treatment and every 7 days for the duration of the experiment.
However, in the clinic, therapy would almost certainly begin after patients present with symptoms of SFN. Therefore, it was determined whether topical XIB4035 can act as a disease-modifying agent in the GFAP-DN-erbB4 neuropathy model starting after animals are clearly symptomatic (P28). […] While IB4 labeling in mutant mice was lower than wild types regardless of treatment, IB4 signal was clearly present in mutant mice treated with XIB4035 while absent in those treated with control cream (FIG. 3D; 83% of XIB4035 treated mice (n=6) with IB4+ lamina II terminals vs 0% (n=4) in control treated mice) (FIG. 3D).
Transgenic mouse lines used were as previously described (Lacomis et al., Muscle Nerve 26, 173-188 (2002); Comblath et al., Current opinion in Neurology 19, 446-450 (2006)). Animals were kept in the animal facility with free access to food and water. Behavioral experiments were performed in a quiet environment at the same time of day. The hot plate test was performed using a “controlled hot-plate analgesia meter” (Columbus Instruments) heated to 54° C. Paw withdrawal latency was measured as the time required for the mouse to visibly respond to the thermal stimulus, e.g. licking paws, shaking paws, or jumping off of the plate.
The cream containing XIB4035 (1.5 mM, ZereneX Molecular Ltd., Manchester, UK) consisted of N-methyl-pyrrolidone (6.25%), isopropyl myristate (6.25%) and petroleum jelly (87.5%). Control cream had the same ingredients without XIB4035. Cream was applied twice daily to the hind paws of mice starting at P21 for a period of 4 weeks for prophylactic treatment of GFAP-DN-erbB4. […]

[2] = target: T1, GFRα3/RET (UniProt O60609+P35546); assay: RET phosphorylation in N2A cells transfected with GFRα3; format: cell-based, human GFRα3 in murine N2A cells
T1 construct: N2A cells (which express RET) transfected with GFRα1 or GFRα3 expression constructs; expressed in transfected cells; host or cells: Neuro2A (N2A) cells; GFRα3 plasmid was a gift from Dr. Milbrandt; RET is endogenous
Protocol: Since the original report argued that XIB4035 displaces GDNF binding to GFRα1 expressing cells (FIG. 2 in Tokugawa et al., Neurochem Int 42, 81-86 (2003).), potentially ARTN, on TH-luciferase activity and Ret phosphorylation. […] In this experiment, cells were treated with GDNF or ARTN with or without XIB4035 for 10 minutes and cell lysates were either collected immediately or treatment was washed out and replaced with growth media for 30, 60, or 120 minutes. […] Therefore, we tested cells expressing only one GFRα using either N2A cells (which express RET) transfected with GFRα1 or GFRα3 expression constructs, or B(E)2-C cells, which express only GFRα2 together with RET. […] The GFRα1 or GFRα3 transfected N2A cells were then treated with XIB4035 alone, the appropriate ligand for the expressed receptor alone, or XIB4035 and ligand in combination for 10 minutes, and collected lysates immediately after treatment or 60 minutes after washout. […] Similar results were obtained with GFRα2 and NRTN using B(E)2-C cells (FIG. 8). Thus, XIB4035 is a positive modulator of signaling by GDNF family ligands and their receptors, not an agonist for GFRα1 as previously reported.
(§1) For phosphorylated Ret immunoblot experiments, cells were treated with various combinations of molecules for 10 minutes and either collected immediately or had treatment washed out and returned to control treatment media for the times indicated prior to cell collection. Lysates were collected in buffer containing: 50 mM Tris-HCL, 1% TX-100, 0.25% Deoxycholic acid, 150 mM sodium chloride, 1 mM EDTA, 0.1 mM sodium fluoride, 0.1 mM sodium pyrophosphate, 0.02 mM sodium orthovanadate, and protease inhibitors Immunoblots were blocked in 5% bovine serum albumin in tris-buffered saline+0.2% Tween 20+0.1 mM sodium fluoride, 0.1 mM sodium pyrophosphate, and 0.02 mM sodium orthovanadate and probed in blocking solution using anti-phospotyrosine (4G10) mouse monoclonal antibody (1:2000; EMD Milipore Corp., Billerica, Mass.). […]

[3] = test system: mutant and wild type mice; assay: Observation for side effects of chronic topical treatment; format: in vivo, mouse; conditions: treated twice a day for 7 weeks
Excerpt: Importantly, given the potential need for chronic application of XIB4035, the question of whether XIB4035 produces side effects in both mutant and wild type mice was examined.

[4] = target: T2, TrkA (Rattus norvegicus, UniProt P35739); assay: NGF-induced TrkA phosphorylation in PC12 cells; format: cell-based; conditions: 50 ng/ml NGF with 20 μM XIB4035, 10 minutes; 15, 30 or 45 minutes after
T2 construct: endogenous in cells; host or cells: PC12 (PC-12) cells
Protocol: PC12 cells were treated with 50 ng/ml of NGF with or without 20 μM XIB4035 for 10 minutes. Cell lysates were either collected immediately or after cells were incubated in growth media for additional 15, 30, or 45 minutes. Cell lysates were subjected to immunoprecipitation using anti-TrkA antibodies and analysis via phospho-tyrosine Western blot. TrkA phosphorylation is not prolonged by addition of XIB4035.
as §1, with “Mass.). Secondary detection was performed in blocking solution using HRP-conjugated goat-anti-mouse antibodies (1:1000; MP Biolomedicals LLC, Solon, Ohio).” for “Mass.).”

T1 sequence (O60609 32-374 limits assumed): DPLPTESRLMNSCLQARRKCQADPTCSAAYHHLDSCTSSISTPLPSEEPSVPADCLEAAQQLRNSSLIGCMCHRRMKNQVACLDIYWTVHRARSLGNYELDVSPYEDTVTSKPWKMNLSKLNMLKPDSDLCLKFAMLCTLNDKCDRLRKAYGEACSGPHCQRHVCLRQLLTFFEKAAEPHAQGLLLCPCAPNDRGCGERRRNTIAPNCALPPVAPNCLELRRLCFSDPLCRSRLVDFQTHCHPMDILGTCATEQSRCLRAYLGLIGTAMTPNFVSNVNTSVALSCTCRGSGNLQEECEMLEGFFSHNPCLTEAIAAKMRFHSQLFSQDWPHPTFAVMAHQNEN
T1 sequence (P35546 29-1115): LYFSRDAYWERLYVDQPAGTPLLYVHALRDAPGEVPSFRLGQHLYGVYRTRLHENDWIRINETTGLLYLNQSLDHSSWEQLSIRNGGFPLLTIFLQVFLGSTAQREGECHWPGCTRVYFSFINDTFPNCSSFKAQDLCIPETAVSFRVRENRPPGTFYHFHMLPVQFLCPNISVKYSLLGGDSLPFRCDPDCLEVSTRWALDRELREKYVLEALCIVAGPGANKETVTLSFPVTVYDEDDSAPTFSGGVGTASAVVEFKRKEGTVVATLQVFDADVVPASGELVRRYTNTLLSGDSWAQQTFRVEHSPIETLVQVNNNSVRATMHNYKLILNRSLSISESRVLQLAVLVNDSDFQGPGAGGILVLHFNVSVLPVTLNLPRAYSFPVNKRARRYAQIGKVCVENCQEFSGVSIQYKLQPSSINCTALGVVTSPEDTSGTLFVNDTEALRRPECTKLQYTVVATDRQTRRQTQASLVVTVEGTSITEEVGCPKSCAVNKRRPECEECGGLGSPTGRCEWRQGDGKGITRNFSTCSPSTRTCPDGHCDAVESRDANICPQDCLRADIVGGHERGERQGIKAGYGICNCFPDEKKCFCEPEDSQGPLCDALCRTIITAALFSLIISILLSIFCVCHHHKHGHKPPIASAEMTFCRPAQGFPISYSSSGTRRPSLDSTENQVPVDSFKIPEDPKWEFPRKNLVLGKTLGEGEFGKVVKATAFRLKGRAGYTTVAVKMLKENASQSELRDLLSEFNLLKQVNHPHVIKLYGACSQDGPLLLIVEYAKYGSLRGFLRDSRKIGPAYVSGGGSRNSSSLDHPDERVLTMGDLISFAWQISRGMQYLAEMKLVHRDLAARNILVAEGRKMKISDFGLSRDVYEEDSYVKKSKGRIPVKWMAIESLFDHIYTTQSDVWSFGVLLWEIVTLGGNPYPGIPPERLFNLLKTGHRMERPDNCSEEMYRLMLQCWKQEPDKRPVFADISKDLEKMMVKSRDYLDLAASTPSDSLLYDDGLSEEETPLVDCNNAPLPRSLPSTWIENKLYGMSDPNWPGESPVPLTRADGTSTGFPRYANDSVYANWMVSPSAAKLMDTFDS
T2 sequence (P35739 33-799): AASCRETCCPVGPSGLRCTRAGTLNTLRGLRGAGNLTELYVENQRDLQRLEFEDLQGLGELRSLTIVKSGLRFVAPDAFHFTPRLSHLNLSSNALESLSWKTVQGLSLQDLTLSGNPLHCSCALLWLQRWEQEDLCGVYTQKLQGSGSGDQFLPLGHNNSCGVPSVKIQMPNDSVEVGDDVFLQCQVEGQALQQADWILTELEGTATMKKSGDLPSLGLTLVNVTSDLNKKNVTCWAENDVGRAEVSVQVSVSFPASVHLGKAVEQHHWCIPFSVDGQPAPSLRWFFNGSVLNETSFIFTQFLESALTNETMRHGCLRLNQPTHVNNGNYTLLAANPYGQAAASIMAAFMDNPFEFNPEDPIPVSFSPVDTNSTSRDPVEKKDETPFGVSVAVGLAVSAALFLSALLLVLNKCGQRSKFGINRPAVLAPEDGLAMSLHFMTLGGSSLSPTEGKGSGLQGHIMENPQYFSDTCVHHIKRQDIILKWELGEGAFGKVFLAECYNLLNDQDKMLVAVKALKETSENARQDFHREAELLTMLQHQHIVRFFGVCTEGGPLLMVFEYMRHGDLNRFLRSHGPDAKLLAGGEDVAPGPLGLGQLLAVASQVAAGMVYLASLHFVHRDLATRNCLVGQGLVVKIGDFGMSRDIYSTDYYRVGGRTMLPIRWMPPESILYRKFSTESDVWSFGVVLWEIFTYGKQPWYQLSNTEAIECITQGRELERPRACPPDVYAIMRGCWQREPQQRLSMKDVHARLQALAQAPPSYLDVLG

SMILES: CCN(CC)CCCC(C)Nc1cc(/C=C/c2ccccc2Cl)nc2cc(Cl)ccc12 (stereo not shown) [XIB4035, N4-{7-chloro-2-[(E)-2-(2-chloro-phenyl)-vinyl]-quinolin-4-yl}-N1,N1-diethyl-pentane-1,4-diamine]
- reaction times to noxious thermal stimulus (thermal nociception) ([1]; prophylactic, cream 1.5 mM on hind paws twice daily, 4 weeks from P21, 54° C. hot plate): indistinguishable from wild type animals
- neuropathic symptoms (thermal nociception) ([1]; therapeutic, treatment started after onset (P28), read one week later (P35), persisted with continued treatment): significant reduction in symptoms
- neuropathic symptoms after interruption of treatment ([1]; treatment initiated at P28, interrupted at P35): neuropathic symptoms reappeared one week later
- induction of RET phosphorylation ([2]; XIB4035 alone, 10 minutes): did not induce RET phosphorylation
- RET phosphorylation at the 60 min time-point compared to ligand alone ([2]; XIB4035 and ligand co-treatment, 60 minutes after washout): clearly prolonged
- changes in appearance, food intake, skin health or other outward negative signs [3]: no changes
- NGF-induced TrkA phosphorylation [4]: not prolonged
